By Ki is commonly meant the dissociation constant of the complex between target and ligand, obtained from inhibition or displacement. High values mean weaker binding, low ones tighter binding.

In the test the target is T1, Purine nucleoside phosphorylase (Homo sapiens, UniProt P00491).
T1 sequence (P00491 whole entry): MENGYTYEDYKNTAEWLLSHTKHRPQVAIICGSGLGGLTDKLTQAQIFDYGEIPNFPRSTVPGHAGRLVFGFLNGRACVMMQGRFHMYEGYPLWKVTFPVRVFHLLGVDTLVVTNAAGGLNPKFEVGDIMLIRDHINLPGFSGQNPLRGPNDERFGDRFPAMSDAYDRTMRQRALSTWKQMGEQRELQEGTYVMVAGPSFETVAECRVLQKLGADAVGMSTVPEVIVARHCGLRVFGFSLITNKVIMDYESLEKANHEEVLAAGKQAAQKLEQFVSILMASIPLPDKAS
The test can be described thus: In vitro inhibition of purine nucleoside phosphorylase isolated from human erythrocytes.
The compound `Nc1nc2c(cnn2COCCCCCP(=O)(O)O)c(=O)[nH]1` had a Ki of 230 nM.
As for `Nc1nc(O)c2nnn(CCCCCP(=O)(O)O)c2n1`, the Ki turned out to be 65 nM.
In the case of `Nc1nc(O)c2nnn(CCCCP(=O)(O)O)c2n1` it was 7300 nM; in that of `Nc1nc(O)c2nnn(COCCCCCCP(=O)(O)O)c2n1`, 190 nM; in that of `Nc1nc(O)c2nnn(CCCCCCP(=O)(O)O)c2n1`, 360 nM.
With `Nc1nc2c(cnn2CCCCCCC(F)(F)P(=O)(O)O)c(=O)[nH]1`, the Ki came out at 49 nM.
For `Nc1nc2c(ncn2COCCCCCCP(=O)(O)O)c(=O)[nH]1` the value was 220 nM; for `Nc1nc(O)c2nn(COCCCCCP(=O)(O)O)nc2n1`, 550 nM; for `Nc1nc2c(cnn2COCCCCCCP(=O)(O)O)c(=O)[nH]1`, 630 nM.
For `Nc1nc(O)c2ncn(CCCCCCCP(=O)(O)O)c2n1` the value was 530 nM.
For `Nc1nc(O)c2ncn(COCCCCP(=O)(O)O)c2n1` the value was 56 nM; for `Nc1nc2c(cnn2CCCCCCCP(=O)(O)O)c(=O)[nH]1`, 580 nM; for `Nc1nc2c(cnn2CCCCCCCCP(=O)(O)O)c(=O)[nH]1`, 1100 nM.
`Nc1nc2c(ncn2CCCCCCCCCCP(=O)(O)O)c(=O)[nH]1` had a Ki of 1600 nM.
With `Nc1nc2c(ncn2CCCCCCC(F)(F)P(=O)(O)O)c(=O)[nH]1`, the Ki worked out at 57 nM.
For `Nc1nc2c(ncn2COCCCCCP(=O)(O)O)c(=O)[nH]1` the value was 160 nM.
In the case of `Nc1nc(O)c2ncn(CCCCCCCCP(=O)(O)O)c2n1` it was 390 nM; in that of `Nc1nc2c(nnn2COCCCCCP(=O)(O)O)c(=O)[nH]1`, 96 nM.
`Nc1nc2c(ncn2COCCCCOP(=O)(O)O)c(=O)[nH]1` had a Ki of 51 nM.
For the compound `Nc1nc2c(nnn2COCCCCP(=O)(O)O)c(=O)[nH]1`, the Ki was 48 nM.
